One data set can be described thus: Plasma stability assay. Format: in vitro ADME. The conditions noted are these: in words.
The next data set deals with VA-13. Put plainly: Cell viability, telomerase-negative cells. Format: cell-based. The conditions noted are these: VA-13, up to 100 μM.
In the next data set the target is T1, CYP1A2 (Homo sapiens, UniProt P05177).
T1 construct: purchased Thermo Fisher
T1 sequence (P05177 1-516): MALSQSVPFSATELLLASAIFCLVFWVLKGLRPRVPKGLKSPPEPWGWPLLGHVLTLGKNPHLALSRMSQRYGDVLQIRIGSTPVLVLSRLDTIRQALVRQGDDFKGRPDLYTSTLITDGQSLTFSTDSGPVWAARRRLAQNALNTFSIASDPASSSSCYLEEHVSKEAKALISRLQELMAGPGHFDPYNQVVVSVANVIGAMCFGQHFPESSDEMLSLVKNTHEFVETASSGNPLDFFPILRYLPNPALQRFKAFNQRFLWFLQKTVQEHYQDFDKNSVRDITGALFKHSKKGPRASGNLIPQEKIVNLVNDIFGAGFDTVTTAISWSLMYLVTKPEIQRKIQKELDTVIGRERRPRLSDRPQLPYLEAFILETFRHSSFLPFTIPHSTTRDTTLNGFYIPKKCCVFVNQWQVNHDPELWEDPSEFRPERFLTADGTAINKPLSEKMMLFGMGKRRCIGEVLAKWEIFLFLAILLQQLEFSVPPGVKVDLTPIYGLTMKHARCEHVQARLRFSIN
Put plainly: CYP450 inhibition assay. Format: in vitro ADME. The conditions noted are these: in words. As for the experimental part:
CYP450 Inhibition Assay. Assay was conducted using the commercially available Vivid CYP1A2 Screening Kit (Thermo Fisher) according to the manufacturer's protocol. α-napthoflavone and DMSO were used as a positive and negative control respectively based on the manufacturer's protocol.

A short description of data set [1]: N-acetyl serine and N-acetyl lysine reactivity. Type of data set: physicochemical. The conditions noted are these: HPLC. On the procedure:
N-Acetyl Cysteine, N-Acetyl Lysine and N-Acetyl Serine Kinetic Studies. Assay was conducted as described with minor modifications.^81-84 Briefly, a 1 mM stock solution of NU-1 with internal standard (phenacetin) in DMSO was added to a 50 mM solution of either N-acetyl cysteine, N-acetyl lysine or N-acetyl serine in 67 mM phosphate buffer (pH 7.4), as well as added to a solution of 67 mM phosphate buffer (pH 7.4) control. Samples were taken every 2 min for 2 h and quenched immediately with MeOH and centrifuged upon sampling. Samples were placed on a Waters Acquity UPLC-MS system and measured for the ratio of NU-1 to internal standard intensity to calculate the amount of NU-1 present at each time point relative to the amount of NU-1 at the first injection of the compound in buffer. Assay was conducted in triplicate.

A further data set concerns MCF-7 proteome. Put plainly: Competitive gel imaging with 5-iodoacetamido-fluorescein (competitive ABPP). Type of data set: binding, human. The conditions noted are these: 10 nM to 100 μM, 1 hr, then fluorescein-iodoacetamide 10 μM. As for the experimental part: Competitive Gel Image Analysis. MCF-7 cells were cultured in DMEM media supplemented with 10% Fetal Bovine Serum (FBS), 1% pen/strep and with 5% CO2 and 37° C. Cells were plated cultured for 3 days. Flasks were rinsed twice with PBS and treated with 0.05% trypsin-EDTA (Thermo Fisher) to detach cells. The cell suspension was washed twice in PBS and the cell pellet was resuspended in 200 μl of M-PER extraction reagent (Thermo Fisher)/10^6 cells, and incubated for 30 min. Cell extracts were transferred to microcentrifuge tubes, 200 μl/tube, and centrifuged at 12,000×g for 20 min to remove cell debris. The corresponding lysate was then further diluted to a total protein concentration of 2 mg/mL as measured by Nanodrop (Thermo Fisher). 48 μL of MCF-7 lysate was added to twelve microcentrifuge tubes (six per compound), followed by treatment of cell lysate with 1 μL solution of NU-1/chrolactomycin (equating to doses ranging from 10 nM to 100 μM). The samples were incubated for 1 hr, followed by addition of 1 μl of 5-iodoacetamido-fluorescein to a final concentration of 10 μM. The samples were again incubated for 1 hr, followed by quenching the reaction with 15 μL NuPAGE LDS Sample Buffer (4×). […]

As to `C=C1C(=O)[C@](C)(C(=O)OC)[C@H](CCc2cn(Cc3ccc(F)cc3F)nn2)O[C@@H]1C` [NU-1, methyl (2S,3R,6R)-2-(2-(1-(2,4-difluorobenzyl)-1H-1,2,3-triazol-4-yl)ethyl)-3,6-dimethyl-5 methylene-4-oxotetrahydro-2H-pyran-3-carboxylate], the plasma stability entry in “Plasma stability assay” is given as “satisfactory performance”. Besides, the effect on viability result with VA-13 was “did not affect viability”. In addition, the CYP450 inhibition profile entry at CYP1A2 was “favorable”. Besides, the amino acid adducts entry in data set [1] is “No amino acid adducts were found”. Further, in the data set on MCF-7 proteome, the “off-target protein labeling (loss of protein banding)” value was “minimal loss of protein banding and streaking”.

The record behind these values is patent publication US11518750B2, “3-methylideneoxan-4-one compounds and substituted derivatives thereof as inhibitors of telomerase” (NORTHWESTERN UNIVERSITY, priority 2019, dated 2022).
